# Values of other authors as cited in US7625410B2, “Stent device and method” (Boston Scientific Scimed, Inc., priority 2001, dated 2009).
# Columns and labels:
# [1] = test system: human and rat aortic smooth muscle cells and endothelial cell proliferation
# [2] = not given; remark: listed apart in the source
compound,measurement,setting,value
C=CC[C@@H]1/C=C(\C)C[C@H](C)C[C@H](OC)[C@H]2O[C@@](O)(C(=O)C(=O)N3CCCC[C@H]3C(=O)O[C@H](/C(C)=C/[C@@H]3CC[C@@H](O)[C@H](OC)C3)[C@H](C)[C@@H](O)CC1=O)[C@H](C)C[C@@H]2OC [tacrolimus],solubility in organic solvents,"chloroform, ethylacetate acetone, and ethanol",soluble
same,solubility in water,water,practically insoluble in water
same,antiproliferative properties on vascular cells,[1]; human and rat aortic smooth muscle cells and endothelial cells,very modest antiproliferative properties
same,transition to the secretory smooth muscle cell type,"[1]; smooth muscle cells, type responsible for the restenosis build up",practically totally inhibited
same,halflife,[2]; assumed value used for the estimate of systemic dosage,12 h
same,distribution in the blood,[2]; blood,primarily intracellular in red blood cells
same,binding in the plasma,[2]; plasma,bound to α-1 sour glycoproteins and albumins
